{
  "source": "paper PMC7277544",
  "about": "“A Fluorescence-Based Method to Measure ADP/ATP Exchange of Recombinant Adenine Nucleotide Translocase in Liposomes” (Biomolecules, 2020)",
  "target": "T1, adenine nucleotide translocase 1 (ANT1) (Mus musculus, UniProt P48962)",
  "T1 construct": "gene Slc25a4; recombinant murine ANT1 from E. coli inclusion bodies, reconstituted into liposomes",
  "T1 sequence (P48962 2-298)": "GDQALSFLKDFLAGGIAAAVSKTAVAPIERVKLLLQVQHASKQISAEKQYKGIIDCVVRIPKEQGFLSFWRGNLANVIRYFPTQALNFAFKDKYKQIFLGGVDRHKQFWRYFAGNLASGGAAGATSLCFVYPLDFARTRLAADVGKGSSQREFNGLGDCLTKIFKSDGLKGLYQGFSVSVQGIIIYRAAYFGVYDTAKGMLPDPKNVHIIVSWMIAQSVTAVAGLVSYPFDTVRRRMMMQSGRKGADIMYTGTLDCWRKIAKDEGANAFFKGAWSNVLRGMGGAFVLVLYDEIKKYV",
  "experiment": "3H-ATP uptake into ANT1 proteoliposomes (transport rate)",
  "type": "biochemical",
  "data": [
    {"smiles": "Nc1ncnc2c1ncn2[C@@H]1O[C@H](COP(=O)(O)OP(=O)(O)OP(=O)(O)O)[C@@H](O)[C@H]1O", "note": "[ATP, adenosine triphosphate]", "values": [
      {"measurement": "3H-ATP uptake into ANT1 proteoliposomes (transport rate)", "value": "2.90 ± 0.47", "unit": "mmol/min/g"}
    ]}
  ]
}
